Publication PMC7181660, “A novel specific PERK activator reduces toxicity and extends survival in Huntington's disease models” (Scientific Reports, 2020)
Like-named read-outs stand apart in the source and are kept apart here.

Columns and labels:
Experiment in all cases: biochemical
Assay type in all cases: biochemical
panel of 391 kinases [1] = molecular target: panel of 391 kinases (Homo sapiens, UniProt Q04771); settings: ALK2/ACVR1, MK-28 1 µM, ATP 1 µM
panel of 391 kinases [2] = molecular target: panel of 391 kinases (Homo sapiens, UniProt P11802); settings: MK-28 1 µM, ATP 1 µM; for remaining activity at 1 µM: read-out: % Enzyme Activity (relative to DMSO controls)
panel of 391 kinases [3] = molecular target: panel of 391 kinases (Homo sapiens, UniProt Q9Y2K2); settings: SIK3, MK-28 1 µM, ATP 1 µM
panel of 391 kinases [4] = molecular target: panel of 391 kinases (Homo sapiens, UniProt P00533); settings: EGFR, MK-28 1 µM, ATP 1 µM
panel of 391 kinases [5] = molecular target: panel of 391 kinases (Homo sapiens, UniProt Q02156); settings: PKCepsilon, MK-28 1 µM, ATP 1 µM
panel of 391 kinases [6] = molecular target: panel of 391 kinases (Homo sapiens, UniProt Q02779); settings: MLK2/MAP3K10, MK-28 1 µM, ATP 1 µM
panel of 391 kinases [7] = molecular target: panel of 391 kinases (Homo sapiens, UniProt Q6VAB6); settings: KSR2, MK-28 1 µM, ATP 1 µM
panel of 391 kinases [8] = molecular target: panel of 391 kinases (Homo sapiens, UniProt Q9UHD2); settings: TBK1, MK-28 1 µM, ATP 1 µM
panel of 391 kinases [9] = molecular target: panel of 391 kinases (Homo sapiens, UniProt P27361); settings: ERK1, MK-28 1 µM, ATP 1 µM
panel of 391 kinases [10] = molecular target: panel of 391 kinases (Homo sapiens, UniProt Q06187); settings: BTK, MK-28 1 µM, ATP 1 µM
panel of 391 kinases [11] = molecular target: panel of 391 kinases (Homo sapiens, UniProt O15111); settings: IKKa/CHUK, MK-28 1 µM, ATP 1 µM
panel of 391 kinases [12] = molecular target: panel of 391 kinases (Homo sapiens, UniProt P54764); settings: EPHA4, MK-28 1 µM, ATP 1 µM
panel of 391 kinases [13] = molecular target: panel of 391 kinases (Homo sapiens, UniProt Q9BQI3); settings: kinase EIF2AK1, compound at 1 µM, single dose in duplicates, 1 µM ATP
panel of 391 kinases [14] = molecular target: panel of 391 kinases (Homo sapiens, UniProt P25098); settings: GRK2, MK-28 1 µM, ATP 1 µM
panel of 391 kinases [15] = molecular target: panel of 391 kinases (Homo sapiens, UniProt Q13131); settings: compound at 1 µM, single dose in duplicates, 1 µM ATP; for remaining activity at 1 µM: read-out: % Enzyme Activity (relative to DMSO controls)
panel of 391 kinases [16] = molecular target: panel of 391 kinases (Homo sapiens, UniProt Q9Y5S2); settings: MRCKb/CDC42BPB, MK-28 1 µM, ATP 1 µM
panel of 391 kinases [17] = molecular target: panel of 391 kinases (Homo sapiens, UniProt O95747); settings: OSR1/OXSR1, MK-28 1 µM, ATP 1 µM
panel of 391 kinases [18] = molecular target: panel of 391 kinases (Homo sapiens, UniProt P35968); settings: KDR/VEGFR2, MK-28 1 µM, ATP 1 µM
panel of 391 kinases [19] = molecular target: panel of 391 kinases (Homo sapiens, UniProt Q13153); settings: PAK1, MK-28 1 µM, ATP 1 µM
panel of 391 kinases [20] = molecular target: panel of 391 kinases (Homo sapiens, UniProt Q8TDC3); settings: BRSK1, MK-28 1 µM, ATP 1 µM
panel of 391 kinases [21] = molecular target: panel of 391 kinases (Homo sapiens, UniProt Q76MJ5); settings: ERN2/IRE2, MK-28 1 µM, ATP 1 µM
panel of 391 kinases [22] = molecular target: panel of 391 kinases (Homo sapiens, UniProt O43318); settings: TAK1, MK-28 1 µM, ATP 1 µM
panel of 391 kinases [23] = molecular target: panel of 391 kinases (Homo sapiens, UniProt P09619); settings: PDGFRb, MK-28 1 µM, ATP 1 µM
panel of 391 kinases [24] = molecular target: panel of 391 kinases (Homo sapiens, UniProt Q16539); settings: P38a/MAPK14, MK-28 1 µM, ATP 1 µM
panel of 391 kinases [25] = molecular target: panel of 391 kinases (Homo sapiens, UniProt P05129); settings: PKCg, MK-28 1 µM, ATP 1 µM
[26] = read-out: % Enzyme Activity (relative to DMSO controls)

CN(/N=C\c1ccc(O)c(O)c1)c1nc(-c2ccccc2)cc(-c2ccccc2)n1 [MK-28]
% Enzyme Activity (relative to DMSO controls) (panel of 391 kinases [1]): 102.33%
remaining activity at 1 µM (panel of 391 kinases [1]; [26]): 108%
% Enzyme Activity (relative to DMSO controls) (panel of 391 kinases [2]; CDK4/cyclin D1): 95.51%
remaining activity at 1 µM (panel of 391 kinases [2]; CDK4/cyclin D1): 95.6%
% Enzyme Activity (relative to DMSO controls) (panel of 391 kinases [2]; CDK4/cyclin D3): 98.69%
remaining activity at 1 µM (panel of 391 kinases [2]; CDK4/cyclin D3): 100%
% Enzyme Activity (relative to DMSO controls) (panel of 391 kinases [3]): 101.97%
remaining activity at 1 µM (panel of 391 kinases [3]; [26]): 105%
% Enzyme Activity (relative to DMSO controls) (panel of 391 kinases [4]): 102.64%
remaining activity at 1 µM (panel of 391 kinases [4]; [26]): 104%
% Enzyme Activity (relative to DMSO controls) (panel of 391 kinases [5]): 100.42%
remaining activity at 1 µM (panel of 391 kinases [5]; [26]): 102%
% Enzyme Activity (relative to DMSO controls) (panel of 391 kinases [6]): 95.47%
remaining activity at 1 µM (panel of 391 kinases [6]; [26]): 100%
% Enzyme Activity (relative to DMSO controls) (panel of 391 kinases [7]): 93.44%
remaining activity at 1 µM (panel of 391 kinases [7]; [26]): 96%
% Enzyme Activity (relative to DMSO controls) (panel of 391 kinases [8]): 116.87%
remaining activity at 1 µM (panel of 391 kinases [8]; [26]): 126%
% Enzyme Activity (relative to DMSO controls) (panel of 391 kinases [9]): 99.70%
remaining activity at 1 µM (panel of 391 kinases [9]; [26]): 101%
% Enzyme Activity (relative to DMSO controls) (panel of 391 kinases [10]): 85.19%
remaining activity at 1 µM (panel of 391 kinases [10]; [26]): 85.4%
% Enzyme Activity (relative to DMSO controls) (panel of 391 kinases [11]): 106.17%
remaining activity at 1 µM (panel of 391 kinases [11]; [26]): 107%
% Enzyme Activity (relative to DMSO controls) (panel of 391 kinases [12]): 100.54%
remaining activity at 1 µM (panel of 391 kinases [12]; [26]): 101%
% Enzyme Activity (relative to DMSO controls) (panel of 391 kinases [13]): 96.86%
remaining activity at 1 µM (panel of 391 kinases [13]; [26]): 100%
% Enzyme Activity (relative to DMSO controls) (panel of 391 kinases [14]): 99.37%
remaining activity at 1 µM (panel of 391 kinases [14]; [26]): 99.8%
% Enzyme Activity (relative to DMSO controls) (panel of 391 kinases [15]; kinase AMPK(A1/B1/G1)): 95.82%
remaining activity at 1 µM (panel of 391 kinases [15]; kinase AMPK(A1/B1/G1)): 96.3%
% Enzyme Activity (relative to DMSO controls) (panel of 391 kinases [15]; kinase AMPK(A1/B1/G2)): 98.77%
remaining activity at 1 µM (panel of 391 kinases [15]; kinase AMPK(A1/B1/G2)): 101%
% Enzyme Activity (relative to DMSO controls) (panel of 391 kinases [15]; kinase AMPK(A1/B1/G3)): 86.51%
remaining activity at 1 µM (panel of 391 kinases [15]; kinase AMPK(A1/B1/G3)): 87%
% Enzyme Activity (relative to DMSO controls) (panel of 391 kinases [15]; kinase AMPK(A1/B2/G1)): 106.30%
remaining activity at 1 µM (panel of 391 kinases [15]; kinase AMPK(A1/B2/G1)): 108%
% Enzyme Activity (relative to DMSO controls) (panel of 391 kinases [16]): 100.39%
remaining activity at 1 µM (panel of 391 kinases [16]; [26]): 101%
% Enzyme Activity (relative to DMSO controls) (panel of 391 kinases [17]): 101.98%
remaining activity at 1 µM (panel of 391 kinases [17]; [26]): 105%
% Enzyme Activity (relative to DMSO controls) (panel of 391 kinases [18]): 98.38%
remaining activity at 1 µM (panel of 391 kinases [18]; [26]): 99.8%
% Enzyme Activity (relative to DMSO controls) (panel of 391 kinases [19]): 100.75%
remaining activity at 1 µM (panel of 391 kinases [19]; [26]): 102%
% Enzyme Activity (relative to DMSO controls) (panel of 391 kinases [20]): 90.51%
remaining activity at 1 µM (panel of 391 kinases [20]; [26]): 92.8%
% Enzyme Activity (relative to DMSO controls) (panel of 391 kinases [21]): 97.92%
remaining activity at 1 µM (panel of 391 kinases [21]; [26]): 99.7%
% Enzyme Activity (relative to DMSO controls) (panel of 391 kinases [22]): 97.66%
remaining activity at 1 µM (panel of 391 kinases [22]; [26]): 97.9%
% Enzyme Activity (relative to DMSO controls) (panel of 391 kinases [23]): 99.16%
remaining activity at 1 µM (panel of 391 kinases [23]; [26]): 99.5%
% Enzyme Activity (relative to DMSO controls) (panel of 391 kinases [24]): 98.53%
remaining activity at 1 µM (panel of 391 kinases [24]; [26]): 100%
% Enzyme Activity (relative to DMSO controls) (panel of 391 kinases [25]): 101.88%
remaining activity at 1 µM (panel of 391 kinases [25]; [26]): 104%
